# Measurements from patent publication US7008632B2, “Combination of biological and chemical agents to combat rodents” (priority 2000, dated 2006).
# Marks after values point to notes of the source that are not given here.
# Experiments:
# Rattus norvegicus = conditions: non-resistant rats; cited from earlier work
# [1] = test system: feral adult brown rats (Rattus norvegicus); experiment: Experiment using feral adult brown rats: mortality after gavage of sporocysts, coumatetralyl or the combination; format: in vivo; conditions: single gavage; 10 000 sporocysts and/or 6 mg of coumatetralyl per kg of body weight
# Method: Experiment Using Feral Adult Brown Rats (Rattus norvegicus)
# The mortality was determined.
# The rats were raised under standard conditions in the laboratory. During the experiment and the 2-week preparation, they were kept individually in cages made of Makrolon. Sporocyst suspension and coumatetralyl were administered by gavage, and during the administration the animals were anesthetized lightly using diethyl ether.
compound,measurement,setting,value
O=c1oc2ccccc2c(O)c1C1CC(c2ccc(-c3ccc(Br)cc3)cc2)Cc2ccccc21 (stereo not drawn) [brodifacoum],LD50 (acute oral),Rattus norvegicus,0.2 mg/kg
"O=c1oc2ccccc2c(O)c1C(CC(O)c1ccc(-c2ccc(Br)cc2)cc1)c1ccccc1 (stereo not drawn) [bromadiolone, 3-(4′-hydroxy-3′-coumarinyl)-3-phenyl-1-(4′-bromo-4′-biphenyl)-propan-1-ol]",LD50 (acute oral),Rattus norvegicus,2.0 mg/kg
"O=c1oc2ccccc2c(O)c1C1CCCc2ccccc21 (stereo not drawn) [coumatetralyl, 3-(1′,2′,3′,4′-tetrahydro-1′-naphthyl)-4-hydroxycoumarin]",Mortality %,[1],17* %
